Experimental data from patent publication US8999976B2, “Modulators of cystic fibrosis transmembrane conductance regulator” (Vertex Pharmaceuticals Incorporated, priority 2008, dated 2015).
Blank lines part the entries; values can stand above or below the molecule they belong to.

Biological target: T1, ΔF508-CFTR (Homo sapiens, UniProt P13569, DEL508-508)
T1 construct: expressed in transfected cells
Assay: Membrane potential optical assay for potentiators of ΔF508-CFTR (FLIPR III, voltage sensing dyes)
Type: cell-based
Settings: for Emax: NIH3T3, 100% efficacy is the maximum response obtained with 4-methyl-2-(5-phenyl-1H-pyrazol-3-yl)phenol, ΔF508 CFTR NIH 3T3 cells; for EC50: temperature-corrected ΔF508 CFTR NIH 3T3 cells, forskolin activation
Description: The assay utilizes fluorescent voltage sensing dyes to measure changes in membrane potential using a fluorescent plate reader (e.g., FLIPR III, Molecular Devices, Inc.) as a readout for increase in functional ΔF508-CFTR in NIH 3T3 cells.
To identify potentiators of ΔF508-CFTR, a double-addition HTS assay format was developed. This HTS assay utilizes fluorescent voltage sensing dyes to measure changes in membrane potential on the FLIPR III as a measurement for increase in gating (conductance) of ΔF508 CFTR in temperature-corrected ΔF508 CFTR NIH 3T3 cells.
Solutions • Bath Solution #1: (in mM) NaCl 160, KCl 4.5, CaCl2 2, MgCl2 1, HEPES 10, pH 7.4 with NaOH. • Chloride-Free Bath Solution: Chloride Salts in Bath Solution #1 are Substituted with Gluconate Salts.
NIH3T3 mouse fibroblasts stably expressing ΔF508-CFTR are used for optical measurements of membrane potential. The cells are maintained at 37° C. in 5% CO2 and 90% humidity in Dulbecco's modified Eagle's medium supplemented with 2 mM glutamine, 10% fetal bovine serum, 1×NEAA, β-ME, 1×pen/strep, and 25 mM HEPES in 175 cm^2 culture flasks. For all optical assays, the cells were seeded at ˜20,000/well in 384-well matrigel-coated plates and cultured for 2 hrs at 37° C. before culturing at 27° C. for 24 hrs. for the potentiator assay. For the correction assays, the cells are cultured at 27° C. or 37° C. with and without compounds for 16-24 hours. Electrophysiological Assays for assaying ΔF508-CFTR modulation properties of compounds.

T1 sequence (P13569 with tags, fused parts or gaps DEL508-508): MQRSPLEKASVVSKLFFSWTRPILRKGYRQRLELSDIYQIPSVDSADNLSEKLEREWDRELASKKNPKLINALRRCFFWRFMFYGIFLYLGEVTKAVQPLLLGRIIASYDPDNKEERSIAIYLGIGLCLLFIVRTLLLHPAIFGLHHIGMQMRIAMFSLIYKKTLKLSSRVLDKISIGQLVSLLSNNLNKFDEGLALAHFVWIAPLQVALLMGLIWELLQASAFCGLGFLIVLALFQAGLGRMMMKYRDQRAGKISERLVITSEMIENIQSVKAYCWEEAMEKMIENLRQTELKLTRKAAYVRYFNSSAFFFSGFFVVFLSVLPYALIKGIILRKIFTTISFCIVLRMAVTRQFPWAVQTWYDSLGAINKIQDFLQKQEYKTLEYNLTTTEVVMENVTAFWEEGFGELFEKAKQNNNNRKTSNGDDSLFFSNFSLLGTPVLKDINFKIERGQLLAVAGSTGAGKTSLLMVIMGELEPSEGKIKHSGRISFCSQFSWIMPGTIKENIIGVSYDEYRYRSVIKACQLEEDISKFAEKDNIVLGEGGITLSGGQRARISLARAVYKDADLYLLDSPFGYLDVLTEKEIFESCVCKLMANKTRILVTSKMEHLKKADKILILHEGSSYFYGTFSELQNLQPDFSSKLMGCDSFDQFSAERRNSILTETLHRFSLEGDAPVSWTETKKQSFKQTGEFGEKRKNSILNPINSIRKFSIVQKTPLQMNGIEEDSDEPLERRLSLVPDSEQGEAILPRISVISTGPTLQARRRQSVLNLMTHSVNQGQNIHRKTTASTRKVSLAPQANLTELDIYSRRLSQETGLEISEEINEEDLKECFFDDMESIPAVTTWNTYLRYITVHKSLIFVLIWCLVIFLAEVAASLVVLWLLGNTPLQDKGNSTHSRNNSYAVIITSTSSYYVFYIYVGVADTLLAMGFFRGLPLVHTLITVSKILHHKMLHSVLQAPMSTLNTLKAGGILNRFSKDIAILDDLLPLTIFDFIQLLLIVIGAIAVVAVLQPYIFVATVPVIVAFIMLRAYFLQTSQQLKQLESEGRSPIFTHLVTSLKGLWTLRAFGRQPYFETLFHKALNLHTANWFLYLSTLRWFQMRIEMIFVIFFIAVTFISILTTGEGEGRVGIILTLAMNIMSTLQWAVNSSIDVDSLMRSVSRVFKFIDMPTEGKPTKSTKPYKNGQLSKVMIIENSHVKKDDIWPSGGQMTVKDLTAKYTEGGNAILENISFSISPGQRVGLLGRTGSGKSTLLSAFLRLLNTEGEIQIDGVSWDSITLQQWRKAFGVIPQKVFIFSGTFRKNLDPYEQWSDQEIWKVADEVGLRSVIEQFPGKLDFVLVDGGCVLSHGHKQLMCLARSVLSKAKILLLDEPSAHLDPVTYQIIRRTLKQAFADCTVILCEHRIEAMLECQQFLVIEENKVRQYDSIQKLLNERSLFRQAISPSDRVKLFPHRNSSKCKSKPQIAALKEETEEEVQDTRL

SMILES: Cc1cc(N2C3CCC2CC3)ncc1NC(=O)C1CNc2ccc(F)cc2O1 (stereo not shown) [Compound 56]
Emax: 25 to 100%
EC50: 5 to 20 µM

SMILES: Cc1ccc(NC(=O)C2CNc3cc(OC(F)(F)F)ccc3O2)c(C#CCN2CCC(C(=O)O)CC2)c1 (stereo not shown) [Compound 69]
Emax: 25 to 100%
EC50: 5 to 20 µM

SMILES: Cc1ccc(NC(=O)C2CNc3cc(OC(F)(F)F)ccc3O2)c(CCCN(C)C)c1 (stereo not shown) [Compound 81]
Emax: 25 to 100%
EC50: 5 to 20 µM

SMILES: CN(C)CC#Cc1cc(C2CCCC2)c(O)cc1NC(=O)[C@H]1CNc2ccccc2O1 [Compound 84]
Emax: 25 to 100%
EC50: < 5 µM

SMILES: CC(C)(C)c1ccc(NC(=O)C2CNc3cccc(C(F)(F)F)c3O2)cc1O (stereo not shown) [Compound 85]
Emax: 25 to 100%
EC50: < 5 µM

SMILES: Cc1ccc2c(c1)OC(C(=O)Nc1cc(O)c(C)cc1F)CN2 (stereo not shown) [Compound 86]
Emax: 25 to 100%
EC50: < 5 µM

SMILES: CC(C)(C)c1cc(C2CCCC2)c(O)cc1NC(=O)C1CNc2cc(C#N)ccc2O1 (stereo not shown) [Compound 87]
Emax: 25 to 100%
EC50: < 5 µM

SMILES: Cc1cc(C2CCCC2)c(O)cc1NC(=O)[C@H]1CNc2cc(C#N)ccc2O1 [Compound 88]
Emax: 25 to 100%
EC50: < 5 µM

SMILES: C[C@H]1CCCN1c1ccc(NC(=O)C2CNc3ccccc3O2)c(C(F)(F)F)c1 (stereo partly shown) [Compound 89]
Emax: 25 to 100%
EC50: < 5 µM

SMILES: CC(C)(C)c1cc(C(C)(C)C)c(NC(=O)C2CNc3ccccc3O2)cc1O (stereo not shown) [Compound 90]
Emax: 25 to 100%
EC50: < 5 µM

SMILES: Cc1ccc(NC(=O)C2CNc3cc(OC(F)(F)F)ccc3O2)c(C#CCN(C)C)n1 (stereo not shown) [Compound 91]
Emax: 25 to 100%
EC50: < 5 µM

SMILES: CC(C)(C)c1ccc(NC(=O)C2CNc3ccccc3O2)cc1F (stereo not shown) [Compound 92]
Emax: 25 to 100%
EC50: < 5 µM

SMILES: O=C(Nc1cc(O)c(C2CCCC2)cc1C(F)(F)F)[C@H]1CNc2cc(F)ccc2O1 [Compound 93]
Emax: 25 to 100%
EC50: < 5 µM

SMILES: COc1cc(NC(=O)C2CNc3ccc(F)cc3O2)ccc1C(C)(C)C (stereo not shown) [Compound 94]
Emax: 25 to 100%
EC50: < 5 µM

SMILES: COc1cc(NC(=O)C2CNc3cc(OC(F)(F)F)ccc3O2)c(C#CCN(C)C)cc1C1CCCC1 (stereo not shown) [Compound 95]
Emax: > 100%
EC50: < 5 µM

SMILES: Cc1cc(C#CC(=O)O)c(NC(=O)C2CNc3cc(OC(F)(F)F)ccc3O2)cc1O (stereo not shown) [Compound 96]
Emax: 25 to 100%
EC50: < 5 µM

SMILES: Cc1ccc2c(c1)NCC(C(=O)Nc1cc(O)c(C3(C)CCCCC3)cc1F)O2 (stereo not shown) [Compound 97]
Emax: 25 to 100%
EC50: < 5 µM

SMILES: CNCC#Cc1cc(C2CCCC2)c(O)cc1NC(=O)C1CNc2cc(OC(F)(F)F)ccc2O1 (stereo not shown) [Compound 98, N-(4-cyclopentyl-5-hydroxy-2-(3-(methylamino)prop-1-ynyl)phenyl)-6-(trifluoromethoxy)-3,4-dihydro-2H-benzo[b][1,4]oxazine-2-carboxamide]
Emax: 25 to 100%
EC50: < 5 µM

SMILES: CC1(c2cc(F)c(NC(=O)C3CNc4ccccc4O3)cc2O)CCCCC1 (stereo not shown) [Compound 99]
Emax: 25 to 100%
EC50: < 5 µM

SMILES: Cc1ccc(NC(=O)C2CNc3cc(OC(F)(F)F)ccc3O2)c(C#CCN2CCOCC2)c1 (stereo not shown) [Compound 100, N-(4-methyl-2-(3-morpholinoprop-1-ynyl)phenyl)-6-(trifluoromethoxy)-3,4-dihydro-2H-benzo[b][1,4]oxazine-2-carboxamide]
Emax: > 100%
EC50: < 5 µM

SMILES: Cc1ccc(NC(=O)C2CNc3cc(OC(F)(F)F)ccc3O2)c(C#CCN2CCC(N)CC2)c1 (stereo not shown) [Compound 101]
Emax: < 25%
EC50: 5 to 20 µM

SMILES: CC[N+](CC)(CC)CC#Cc1cc(C)ccc1NC(=O)C1CNc2cc(OC(F)(F)F)ccc2O1 (stereo not shown) [Compound 102]
Emax: 25 to 100%
EC50: 5 to 20 µM

SMILES: O=C(Nc1cc(O)c(C2CCCC2)cc1Cl)C1CNc2ccc(F)cc2O1 (stereo not shown) [Compound 103]
Emax: 25 to 100%
EC50: < 5 µM

SMILES: CN(C)CC#Cc1cc(N2C3CCC2CC3)ccc1NC(=O)C1CNc2ccccc2O1 (stereo not shown) [Compound 104]
Emax: 25 to 100%
EC50: 5 to 20 µM

SMILES: CS(=O)(=O)c1cc(C2CCCC2)c(O)cc1NC(=O)C1CNc2cc(OC(F)(F)F)ccc2O1 (stereo not shown) [Compound 105]
Emax: > 100%
EC50: 5 to 20 µM

SMILES: CN(C)CC#Cc1cc(C2CCCC2)c(O)cc1NC(=O)C1CNc2cc(OC(F)(F)F)ccc2O1 (stereo not shown) [Compound 106]
Emax: > 100%
EC50: < 5 µM

SMILES: Cc1cccc2c1OC(C(=O)Nc1ccc(C(C)(C)C)c(O)c1)CN2 (stereo not shown) [Compound 107]
Emax: 25 to 100%
EC50: < 5 µM

SMILES: CC1(c2cc(F)c(NC(=O)C3CNc4cc(OC(F)(F)F)ccc4O3)cc2O)CCCCC1 (stereo not shown) [Compound 108]
Emax: 25 to 100%
EC50: < 5 µM

SMILES: O=C(Nc1ccc(O)c(OC(F)(F)F)c1)C1CNc2ccc(F)cc2O1 (stereo not shown) [Compound 109]
Emax: 25 to 100%
EC50: 5 to 20 µM

SMILES: CN(C)CC#Cc1cc(C2CCCC2)ccc1NC(=O)C1CNc2cc(C#N)ccc2O1 (stereo not shown) [Compound 110]
Emax: 25 to 100%
EC50: < 5 µM

Continued, values first:

Emax: 25 to 100%
EC50: < 5 µM
SMILES: Cc1cc(F)c(NC(=O)C2CNc3ccccc3O2)cc1O (stereo not shown) [Compound 55]

Emax: 25 to 100%
EC50: < 5 µM
SMILES: O=C(Nc1cc(O)cc(C(F)(F)F)c1)C1CNc2ccccc2O1 (stereo not shown) [Compound 57]

Emax: > 100%
EC50: < 5 µM
SMILES: CN(C)CC#Cc1cc(C2CCCC2)c(O)cc1NC(=O)[C@H]1CNc2cc(OC(F)(F)F)ccc2O1 [Compound 58]

Emax: 25 to 100%
EC50: < 5 µM
SMILES: CC(C)(C)c1cc(C2CCCC2)c(O)cc1NC(=O)[C@@H]1CNc2cc(C#N)ccc2O1 [Compound 59]

Emax: 25 to 100%
EC50: < 5 µM
SMILES: CC(C)c1ccc(NC(=O)C2CNc3cc(Cl)ccc3O2)c(C#CCN(C)C)c1 (stereo not shown) [Compound 60]

Emax: 25 to 100%
EC50: < 5 µM
SMILES: O=C(Nc1cc(O)c(C2CCCC2)cc1F)C1CNc2ccc(F)cc2O1 (stereo not shown) [Compound 61]

Emax: 25 to 100%
EC50: < 5 µM
SMILES: Cc1ccc(NC(=O)C2CNc3cc(OC(F)(F)F)ccc3O2)c(C#CCN2CCN(C)CC2)c1 (stereo not shown) [Compound 62]

Emax: 25 to 100%
EC50: < 5 µM
SMILES: Cc1ccc(NC(=O)C2CNc3cc(OC(F)(F)F)ccc3O2)c(C#CCN2CCNC(=O)C2)c1 (stereo not shown) [Compound 63]

Emax: 25 to 100%
EC50: < 5 µM
SMILES: Cc1ccc(NC(=O)C2CNc3cc(OC(F)(F)F)ccc3O2)c(C#CCN2CCC(O)CC2)c1 (stereo not shown) [Compound 64]

Emax: > 100%
EC50: < 5 µM
SMILES: CN(C)CC#Cc1cc(C2CCCC2)c(O)cc1NC(=O)[C@@H]1CNc2cc(OC(F)(F)F)ccc2O1 [Compound 65]

Emax: 25 to 100%
EC50: < 5 µM
SMILES: CC(C)(C)c1cc(C2CCCC2)c(O)cc1NC(=O)C1CNc2cc(S(C)(=O)=O)ccc2O1 (stereo not shown) [Compound 66]

Emax: 25 to 100%
EC50: < 5 µM
SMILES: Cc1ccc(NC(=O)C2CNc3cc(Cl)ccc3O2)c(C#CCN(C)C)c1 (stereo not shown) [Compound 67]

Emax: 25 to 100%
EC50: < 5 µM
SMILES: CC1(c2cc(F)c(NC(=O)C3CNc4ccc(F)cc4O3)cc2O)CCCCC1 (stereo not shown) [Compound 68]

Emax: 25 to 100%
EC50: < 5 µM
SMILES: CC(C)(C)c1ccc(NC(=O)C2CNc3ccc(C(F)(F)F)cc3O2)cc1O (stereo not shown) [Compound 70]

Emax: 25 to 100%
EC50: < 5 µM
SMILES: Cc1ccc(NC(=O)C2CNc3cc(OC(F)(F)F)ccc3O2)c(C#CCN2CCCCC2)c1 (stereo not shown) [Compound 71]

Emax: 25 to 100%
EC50: < 5 µM
SMILES: Cc1cc(C2CCCC2)c(O)cc1NC(=O)C1CNc2cc(S(C)(=O)=O)ccc2O1 (stereo not shown) [Compound 72]

Emax: 25 to 100%
EC50: < 5 µM
SMILES: Cc1ccc(NC(=O)C2CNc3cc(OC(F)(F)F)ccc3O2)c(C#CCN2CCCC2)c1 (stereo not shown) [Compound 73]

Emax: 25 to 100%
EC50: < 5 µM
SMILES: Cc1cc(C2CCCC2)c(O)cc1NC(=O)C1CNc2cc(C#N)ccc2O1 (stereo not shown) [Compound 74]

Emax: > 100%
EC50: < 5 µM
SMILES: COC(=O)Cc1cc(C2CCCC2)c(O)cc1NC(=O)C1CNc2cc(OC(F)(F)F)ccc2O1 (stereo not shown) [Compound 75]

Emax: 25 to 100%
EC50: < 5 µM
SMILES: O=C(Nc1cc(O)c(C2CCCC2)cc1C(F)(F)F)[C@@H]1CNc2cc(F)ccc2O1 [Compound 76]

Emax: 25 to 100%
EC50: < 5 µM
SMILES: CC(C)(C)c1ccc(NC(=O)[C@H]2CNc3ccc(F)cc3O2)cc1O [Compound 77]

Emax: 25 to 100%
EC50: < 5 µM
SMILES: CC(C)(C)c1ccc(NC(=O)C2CNc3c(F)cccc3O2)cc1O (stereo not shown) [Compound 78]

Emax: > 100%
EC50: < 5 µM
SMILES: CN(C)CC#Cc1cc(C2CCCC2)c(O)cc1NC(=O)C1(C)CNc2cc(OC(F)(F)F)ccc2O1 (stereo not shown) [Compound 79]

Emax: 25 to 100%
EC50: < 5 µM
SMILES: CC1(c2cc(F)c(NC(=O)[C@H]3CNc4ccccc4O3)cc2O)CCCCC1 [Compound 80]

Emax: 25 to 100%
EC50: < 5 µM
SMILES: COc1cc(NC(=O)C2CNc3ccc(F)cc3O2)c(Cl)cc1C(C)(C)O (stereo not shown) [Compound 82]

Emax: 25 to 100%
EC50: < 5 µM
SMILES: CC(C)(C)c1ccc(NC(=O)[C@@H]2CNc3ccc(F)cc3O2)cc1O [Compound 83]
